Experiment [1] has as its system DU-145. Nature of the experiment: Inhibition of cell growth by counting cells, DU-145. It counts as cell-based, human. The note with it: Homo sapiens, DU-145, 72 h, read-out: IC50 (molar) DU-145. The method in brief:
(§1)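 1×10^4 cells/well, EMEM 5% FCS + test sample at several concs, duplicates; 3 d, 37° C, 5% CO2, humidified. Trypsinize, Coulter count; % growth vs untreated wells; IC50 from dose-response curve.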

The test system of experiment [2] is A-549. Nature of the experiment: Inhibition of cell growth by counting cells, A-549. Conditions: Homo sapiens, A549, 72 h, read-out: IC50 (molar) A-549. The experiment is classed as cell-based, human. A digest of the protocol: as §1
For experiment [3], the system named is MEL-28. Nature of the experiment: Inhibition of cell growth by counting cells, MEL-28. The experiment is classed as cell-based, human. The note with it: Homo sapiens, SK-MEL-28, 72 h, read-out: IC50 (molar) MEL-28. The method in brief: as §1
For experiment [4], the system named is P-388. Nature of the experiment: Inhibition of cell growth by counting cells, P-388. The experiment is classed as cell-based, mouse. The note with it: Mus musculus, P388, 72 h, read-out: IC50 (molar) P-388. The method in brief:
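IC50 is the sample concentration halving growth, taken from dose-response curves of cell counts (Coulter counter, duplicate wells) relative to drug-free cultures. P-388 (DBA/2 mouse lymphoid neoplasm) cells plated at 1×10^4 per well in EMEM with 5% FCS plus test sample.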

Experiment [5] deals with HT-29. Nature of the experiment: Inhibition of cell growth by counting cells, HT-29. It counts as cell-based, human. The note with it: Homo sapiens, HT-29, 72 h, read-out: IC50 (molar) HT-29. A digest of the protocol:
as §1

This note sets out measurements from patent US7759345B2, “Antitumoral derivatives of ET-743” (priority 2001, dated 2010).

pIC50: −log10 of the molar value. Like-named read-outs stand apart in the source and are kept apart here.

By pIC50 is commonly meant −log10 of the IC50, conventionally taken in molar units. Turning to `COc1cc2c(cc1OC(=O)OC(C)(C)C)CCN[C@]21CS[C@@H]2c3c(OCc4ccccc4)c(C)c4c(c3[C@H](COC1=O)N1C2[C@H]2c3c(cc(C)c(OC)c3OCc3ccccc3)C[C@@H]([C@@H]1C#N)N2C)OCO4` (stereo partly drawn) [Compound 135], the pIC50 in experiment [1], in experiment [2], in experiment [3], in experiment [4] and in experiment [5] was 8.30 throughout.
As for `COc1cc2c(cc1O)CCN[C@]21CS[C@@H]2c3c(O)c(C)c4c(c3[C@H](COC1=O)N1C2[C@H]2c3c(cc(C)c(OC)c3O)C[C@@H]([C@@H]1C#N)N2C)OCO4` (stereo partly drawn) [Compound 136], the pIC50 in experiment [1] (three days of incubation), in experiment [2] (three days of incubation), in experiment [3] (three days of incubation), in experiment [4] (three days of incubation) and in experiment [5] (three days of incubation) was 9.86 throughout.
As for `COc1cc2c(cc1O)CCN[C@]21CS[C@@H]2c3c(OC(=O)/C=C/c4ccccc4)c(C)c4c(c3[C@H](COC1=O)N1C2[C@H]2c3c(cc(C)c(OC)c3O)C[C@@H]([C@@H]1C#N)N2C)OCO4` (stereo partly drawn) [Compound 137], the pIC50 in experiment [1] (three days of incubation), in experiment [2] (three days of incubation), in experiment [3] (three days of incubation), in experiment [4] (three days of incubation) and in experiment [5] (three days of incubation) was 9.93 throughout.
Take `CCCCCCCC(=O)Oc1c(C)c2c(c3c1[C@H]1SC[C@]4(NCCc5cc(O)c(OC)cc54)C(=O)OC[C@@H]3N3C1[C@H]1c4c(cc(C)c(OC)c4O)C[C@@H]([C@@H]3C#N)N1C)OCO2` (stereo partly drawn) [Compound 144]: the negative logarithm of the IC50 (pIC50) in experiment [1] (three days of incubation), in experiment [2] (three days of incubation), in experiment [3] (three days of incubation), in experiment [4] (three days of incubation) and in experiment [5] (three days of incubation) was 8.93 in each case.
Regarding `CCCCCCCCCCCCCCCC(=O)Oc1c(C)c2c(c3c1[C@H]1SC[C@]4(NCCc5cc(O)c(OC)cc54)C(=O)OC[C@@H]3N3C1[C@H]1c4c(cc(C)c(OC)c4O)C[C@@H]([C@@H]3C#N)N1C)OCO2` (stereo partly drawn) [Compound 146], the pIC50 in experiment [1] (three days of incubation), in experiment [2] (three days of incubation), in experiment [3] (three days of incubation), in experiment [4] (three days of incubation) and in experiment [5] (three days of incubation) was 6.99 in each case.
Turning to `COc1cc2c(cc1O)CCN[C@]21CS[C@@H]2c3c(OC(=O)C(F)(F)F)c(C)c4c(c3[C@H](COC1=O)N1C2[C@H]2c3c(cc(C)c(OC)c3O)C[C@@H]([C@@H]1C#N)N2C)OCO4` (stereo partly drawn) [Compound 159], the pIC50 in experiment [1] (three days of incubation), in experiment [2] (three days of incubation), in experiment [3] (three days of incubation), in experiment [4] (three days of incubation) and in experiment [5] (three days of incubation) was 8.86 in each case.
As to `CCCCCCCC(=O)Oc1c(C)c2c(c3c1[C@H]1SC[C@]4(NCCc5cc(O)c(OC)cc54)C(=O)OC[C@@H]3N3C1[C@H]1c4c(cc(C)c(OC)c4O)C[C@@H]([C@@H]3O)N1C)OCO2` (stereo partly drawn) [Compound 168], the pIC50 in experiment [1] (three days of incubation), in experiment [2] (three days of incubation), in experiment [3] (three days of incubation), in experiment [4] (three days of incubation) and in experiment [5] (three days of incubation) was 9.23 throughout.
As to `COc1cc2c(cc1OC(C)=O)CCN[C@]21CS[C@@H]2c3c(OC(C)=O)c(C)c4c(c3[C@H](COC1=O)N1C2[C@H]2c3c(cc(C)c(OC)c3O)C[C@@H]([C@@H]1C#N)N2C(=O)OC(C)(C)C)OCO4` (stereo partly drawn) [Compound 191], the pIC50 in experiment [1] (three days of incubation), in experiment [2] (three days of incubation), in experiment [3] (three days of incubation), in experiment [4] (three days of incubation) and in experiment [5] (three days of incubation) was 8.95 in each case.
As to `CCCC(=O)Oc1cc2c(cc1OC)[C@@]1(CS[C@@H]3c4c(OC(C)=O)c(C)c5c(c4[C@H](COC1=O)N1C3[C@H]3c4c(cc(C)c(OC)c4O)C[C@@H]([C@@H]1C#N)N3C(=O)OC(C)(C)C)OCO5)NCC2` (stereo partly drawn) [Compound 192], the pIC50 in experiment [1], in experiment [2] (three days of incubation), in experiment [3] (three days of incubation), in experiment [4] (three days of incubation) and in experiment [5] (three days of incubation) was 8.27 each time.
As for `COc1cc2c(cc1OC(=O)/C=C/c1ccccc1)CCN[C@]21CS[C@@H]2c3c(OC(C)=O)c(C)c4c(c3[C@H](COC1=O)N1C2[C@H]2c3c(cc(C)c(OC)c3O)C[C@@H]([C@@H]1C#N)N2C(=O)OC(C)(C)C)OCO4` (stereo partly drawn) [Compound 194], the pIC50 in experiment [1] (three days of incubation), in experiment [2] (three days of incubation), in experiment [3] (three days of incubation), in experiment [4] (three days of incubation) and in experiment [5] (three days of incubation) was 7.29 each time.
For `CCCCCCCC(=O)Oc1cc2c(cc1OC)[C@@]1(CS[C@@H]3c4c(OC(C)=O)c(C)c5c(c4[C@H](COC1=O)N1C3[C@H]3c4c(cc(C)c(OC)c4O)C[C@@H]([C@@H]1C#N)N3C(=O)OC(C)(C)C)OCO5)NCC2` (stereo partly drawn) [Compound 195], the pIC50 in experiment [1] (three days of incubation), in experiment [2] (three days of incubation), in experiment [3] (three days of incubation), in experiment [4] (three days of incubation) and in experiment [5] (three days of incubation) was 7.99 throughout.
`CCCCCCCC(=O)Oc1cc2c(cc1OC)[C@@]1(CS[C@@H]3c4c(OC(C)=O)c(C)c5c(c4[C@H](COC1=O)N1C3[C@H]3c4c(cc(C)c(OC)c4OC(=O)CCCCCCC)C[C@@H]([C@@H]1C#N)N3C(=O)OC(C)(C)C)OCO5)NCC2` (stereo partly drawn) [Compound 196]: the pIC50 in experiment [1] (three days of incubation), in experiment [2] (three days of incubation), in experiment [3] (three days of incubation), in experiment [4] (three days of incubation) and in experiment [5] (three days of incubation) was 5.04 throughout.
In the case of `CCCCCCCCCCCCCCCC(=O)Oc1cc2c(cc1OC)[C@@]1(CS[C@@H]3c4c(OC(C)=O)c(C)c5c(c4[C@H](COC1=O)N1C3[C@H]3c4c(cc(C)c(OC)c4O)C[C@@H]([C@@H]1C#N)N3C(=O)OC(C)(C)C)OCO5)NCC2` (stereo partly drawn) [Compound 197], the pIC50 in experiment [1] (three days of incubation), in experiment [2] (three days of incubation), in experiment [3] (three days of incubation), in experiment [4] (three days of incubation) and in experiment [5] (three days of incubation) was 5.04 each time.
With `CCCCCCCCCCCCCCCC(=O)Oc1cc2c(cc1OC)[C@@]1(CS[C@@H]3c4c(OC(C)=O)c(C)c5c(c4[C@H](COC1=O)N1C3[C@H]3c4c(cc(C)c(OC)c4OC(=O)CCCCCCCCCCCCCCC)C[C@@H]([C@@H]1C#N)N3C(=O)OC(C)(C)C)OCO5)NCC2` (stereo partly drawn) [Compound 198], the pIC50 in experiment [1] (three days of incubation), in experiment [2] (three days of incubation), in experiment [3] (three days of incubation), in experiment [4] (three days of incubation) and in experiment [5] (three days of incubation) was 5.12 in each case.
For the compound `COc1cc2c(cc1OC(C)=O)CCN[C@]21CS[C@@H]2c3c(OC(C)=O)c(C)c4c(c3[C@H](COC1=O)N1C2[C@@H]2N[C@@H](Cc3cc(C)c(OC)c(O)c32)[C@@H]1C#N)OCO4` (stereo partly drawn) [Compound 202], the pIC50 in experiment [1] (three days of incubation) was 10.20; in experiment [2] (three days of incubation), 9.90; in experiment [3] (three days of incubation), 10.20; in experiment [4] (three days of incubation), 9.90; in experiment [5] (three days of incubation), 9.90.
For `CCCC(=O)Oc1cc2c(cc1OC)[C@@]1(CS[C@@H]3c4c(OC(C)=O)c(C)c5c(c4[C@H](COC1=O)N1C3[C@@H]3N[C@@H](Cc4cc(C)c(OC)c(O)c43)[C@@H]1C#N)OCO5)NCC2` (stereo partly drawn) [Compound 203], the pIC50 in experiment [1] (three days of incubation), in experiment [2] (three days of incubation), in experiment [3] (three days of incubation), in experiment [4] (three days of incubation) and in experiment [5] (three days of incubation) was 9.92 throughout.
`COc1cc2c(cc1OC(=O)/C=C/c1ccccc1)CCN[C@]21CS[C@@H]2c3c(OC(C)=O)c(C)c4c(c3[C@H](COC1=O)N1C2[C@@H]2N[C@@H](Cc3cc(C)c(OC)c(O)c32)[C@@H]1C#N)OCO4` (stereo partly drawn) [Compound 204]: the pIC50 in experiment [1] (three days of incubation), in experiment [2] (three days of incubation), in experiment [3] (three days of incubation), in experiment [4] (three days of incubation) and in experiment [5] (three days of incubation) was 9.95 in each case.
`CCCCCCCC(=O)Oc1cc2c(cc1OC)[C@@]1(CS[C@@H]3c4c(OC(C)=O)c(C)c5c(c4[C@H](COC1=O)N1C3[C@@H]3N[C@@H](Cc4cc(C)c(OC)c(O)c43)[C@@H]1C#N)OCO5)NCC2` (stereo partly drawn) [Compound 205]: the pIC50 in experiment [1] (three days of incubation), in experiment [2] (three days of incubation), in experiment [3] (three days of incubation), in experiment [4] (three days of incubation) and in experiment [5] (three days of incubation) was 9.95 in each case.
Take `CCCCCCCC(=O)Oc1cc2c(cc1OC)[C@@]1(CS[C@@H]3c4c(OC(C)=O)c(C)c5c(c4[C@H](COC1=O)N1C3[C@@H]3N[C@@H](Cc4cc(C)c(OC)c(OC(=O)CCCCCCC)c43)[C@@H]1C#N)OCO5)NCC2` (stereo partly drawn) [Compound 206]: the pIC50 in experiment [1] (three days of incubation), in experiment [2] (three days of incubation), in experiment [3] (three days of incubation), in experiment [4] (three days of incubation) and in experiment [5] (three days of incubation) was 7.30 each time.
As for `CCCCCCCCCCCCCCCC(=O)Oc1cc2c(cc1OC)[C@@]1(CS[C@@H]3c4c(OC(C)=O)c(C)c5c(c4[C@H](COC1=O)N1C3[C@@H]3N[C@@H](Cc4cc(C)c(OC)c(O)c43)[C@@H]1C#N)OCO5)NCC2` (stereo partly drawn) [Compound 207], the pIC50 in experiment [1] (three days of incubation), in experiment [2] (three days of incubation), in experiment [3] (three days of incubation), in experiment [4] (three days of incubation) and in experiment [5] (three days of incubation) was 8.30 in each case.
With `CCCCCCCCCCCCCCCC(=O)Oc1cc2c(cc1OC)[C@@]1(CS[C@@H]3c4c(OC(C)=O)c(C)c5c(c4[C@H](COC1=O)N1C3[C@@H]3N[C@@H](Cc4cc(C)c(OC)c(OC(=O)CCCCCCCCCCCCCCC)c43)[C@@H]1C#N)OCO5)NCC2` (stereo partly drawn) [Compound 208], the pIC50 in experiment [1] (three days of incubation), in experiment [2] (three days of incubation), in experiment [3] (three days of incubation), in experiment [4] (three days of incubation) and in experiment [5] (three days of incubation) was 5.09 throughout.
